Experimental data published in patent publication US8653027B2, “Method of treatment of type-1 diabetes with humanin analogues” (The Regents of the University of California, priority 2007, dated 2014).
“Also recorded” adds a separate entry of the source. Read-outs that look alike come from different tables or passages of the source.

What was measured:
IGFBP-3 = IGFBP-3 (Homo sapiens, UniProt P17936); experiment: IGFBP-3 binding
normal (wild-type) MEFs = experiment: Apoptosis ELISA in normal (wild-type) mouse embryonic fibroblasts; format: cell-based; settings: 100 nM peptide, 24 hours
Protocol: (§1) Mouse embryonic fibroblasts (MEFs) derived from normal (wild-type) and IGFBP3 deficient mice were used to test the effects of humanin and its analogues on survival. Apoptosis was measured after 24 hours with 100 nM of each peptide by ELISA. […] The increased potency seems to result from the lack of IGFBP-3 binding, because there is no additional advantage when IGFBP-3 is not present. Thus, F6A-HNG is distinct from previously described humanin derivatives.

IGFBP-3 deficient MEFs = experiment: Apoptosis ELISA in IGFBP-3 deficient mouse embryonic fibroblasts; format: cell-based; settings: 100 nM peptide, 24 hours
Protocol: as §1

NONcNZO10/LtJ mice = experiment: IP glucose tolerance test in NONcNZO10/LtJ mice (obesity-induced type 2 diabetes model); format: in vivo, mouse; settings: 25 μg IP twice a day for 14 days
Protocol: NONcNZO10/LtJ mice are a model for obesity-induced type 2 diabetes. NONcNZO10/LtJ mice were injected IP with 25 μg F6A-HNG twice a day for 14 days. Mice were subjected to 6 hour fast followed by an IP GTT on D15. Baseline glucose measurement was taken and the mice were injected IP with 0.5 mg/g glucose. Glucose was sampled at 0 and 90, 120 min.

NIT cells = experiment: Survival and STAT-3/ERK activation in NIT cells, potency compared to humanin; format: cell-based
NIT-1 insulinoma cells = experiment: Serum starvation-induced apoptosis of NIT-1 cells, histone-associated DNA ELISA; format: cell-based, Mouse; settings: NIT-1 cells serum starved 24 hours, humanin 1 to 10000 nM
Protocol: Secondary to the pro-survival effect of humanin observed in neuronal cells, we hypothesized that humanin could be a survival factor for neuroendocrine beta cells. Mouse NIT-1 insulinoma cells were serum starved for 24 hours as control, and compared to cultures co-incubated with increasing doses of humanin ranging from 1 to 10000 nM.
Conditions were as follows: NIT-1 cells were purchased from ATCC and maintained in F-12 Ham's medium (F12-K) supplemented with 10% FBS (fetal bovine serum), 10% L-glutamine, Penicillin (100 U/ml) and Streptomycin (100 μg/ml), in 25 cm^2 tissue culture flasks (Greiner, Frickenhausen, Germany). NIT-1 cells were maintained at 37 C in a 5% CO2/95% air mixture and were passaged twice weekly by trypsination (Invitrogen life technologies, Karlsruhe, Germany). For the experiment, NIT-1 cells were seeded in 96-well plates at a density of 0.128×10^5 cells per well. After about 24 hours, medium was changed to FCS-free medium.
Apoptosis was quantified by a specific histone-associated DNA ELISA.

NIT-1 cells = experiment: Caspase 3/7 fluorometric assay (ApoONE) of cytokine-induced apoptosis in NIT-1 cells; format: cell-based, Mouse
Protocol: Apoptosis is the main form of pancreatic beta cell death in animal models of type 1 diabetes mellitus. […] In this study, we used a caspase 3/7 specific fluorometric assay (ApoONE, Promega) to measure the degree of apoptosis induction by cytokines in NIT-1 cells.
Cells were cultured as described above. For the experiment, NIT-1 cells were seeded in 96-well plates at a density of 0.128×10^5 cells per well. After about 24 hours, medium was changed to FCS-free medium and the cells were exposed to TNF-α (5 ng/mL) or were kept untreated as controls. As expected, TNF-α induced apoptosis in NIT-1 cells at 48 hours.
TNF-α increased apoptosis approximately 40% compared to serum-deprived cells.

ERK1/2 = ERK1/2 phosphorylation in NIT-1 cells by immunoblotting; format: cell-based, Mouse; settings: 100 nM HN, serum free media
Protocol: (§2) To investigate the mechanism of Humanin-induced beta cell survival, we treated NIT-1 cells with 100 nM HN in serum free media. Cell lysates were harvested and phosphorylated ERK1/2 and STAT3 were assessed by immunoblotting.
(§3) Phosphorylation of ERK (activation) occurred 15 minutes after adding HN. Phosphorylation of STAT3 (activation) was a later event, 4 hours after addition of HN (FIG. 2).

STAT3 = STAT3 phosphorylation in NIT-1 cells by immunoblotting; format: cell-based, Mouse; settings: 100 nM HN, serum free media
Protocol: as §2, §3

NOD mice [1] = format: in vivo; settings: for glucose tolerance (response to glucose challenge): NOD mice, 0.7 mg/kg/d IP for 6 weeks, fasted overnight, vs saline
Protocol: As proof of principle, we examined whether a 6-week course of daily IP injected humanin (0.7 mg/kg/d) to euglycemic 9-week-old NOD mice (Taconic) could improve glucose tolerance as compared to saline-injected control mice (n=12/group). […] At the conclusion of the treatment, mice were fasted overnight and divided into groups that were subjected to IP insulin and glucose tolerance testing (n=6/group). […] We additionally harvested serum, pancreata, and various other organs from these mice for histological studies and analysis of serum humanin, IGFBP-3, and other IGF-related peptides.

NOD mice [2] = experiment: Insulitis scoring of pancreatic sections from NOD mice; format: in vivo, mouse; settings: humanin-treated NOD mice vs vehicle-treated control
Text: To test whether administration of humanin regulates the extent of lymphocyte infiltration into pancreatic islets, fixed and embedded pancreatic tissues were examined. Pancreata from humanin-treated NOD mice were formalin fixed, stained with hematoxylin/eosin, and assessed in a blinded fashion to determine the degree of lymphocyte infiltration. Results were compared to tissues from saline-injected control mice. Three or four randomly selected and nonadjacent sections from each pancreas were scored independently by two blind observers and evaluated for mononuclear cell infiltration. Severity of infiltration was classified based on the degree of lymphocytic infiltration as follows: G0—normal (no infiltration); G1—peri-insulitis (mononuclear cells surrounding islets and ducts but no infiltration of the islet architecture); G2—moderate insulitis (mononuclear cells infiltrating less than 50% of the islet architecture); and G3—severe insulitis (more than 50% of the islet tissue infiltrated by lymphocytes, accompanied by a reduction in insulin staining). See Pastorale et al. (2002) Exp Biol Med (Maywood) 227:282-89.

NOD mice [3] = experiment: Onset of diabetes in NOD mice over 20-week treatment; format: in vivo, mouse; settings: female NOD mice, 0.7 mg/kg/d IP daily from 5 weeks of age, vs saline, 0.7 mg/kg/day
Protocol: Four-week-old female NOD mice were treated with humanin. Before treatment, mice were tested two to three times per week for nonfasting blood glucose levels. Mice with blood glucose levels higher than 300 mg/dL on three consecutive measurements were considered diabetic. Beginning at 5 weeks of age, two groups of NOD mice (n=25 each) were administered (0.7 mg/kg/d) synthetic humanin by IP injection daily (Bachem). NOD mice injected with the same volume of saline served as negative controls.

Sequence of IGFBP-3 (P17936 28-291, species assumed): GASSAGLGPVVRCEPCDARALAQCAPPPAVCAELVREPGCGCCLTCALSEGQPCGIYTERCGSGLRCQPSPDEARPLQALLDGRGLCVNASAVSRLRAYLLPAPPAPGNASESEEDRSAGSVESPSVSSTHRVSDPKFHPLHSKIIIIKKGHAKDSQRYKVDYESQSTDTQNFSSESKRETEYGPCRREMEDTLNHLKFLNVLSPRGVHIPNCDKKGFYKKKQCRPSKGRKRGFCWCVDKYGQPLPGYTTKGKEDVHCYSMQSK

For “F6A-HNG: humanin analogue, SEQ ID NO:16 MAPRGASCLLLLTGEIDLPVKRRA (synthetic humanin (HN) analogue F6A-HNG)”, the IGFBP-3 binding (IGFBP-3) was “does not bind IGFBP-3; also recorded: devoid of IGFBP-3 binding activity”, the “potency on survival (apoptosis) in normal MEFs” value (normal (wild-type) MEFs) was “more potent” and the “potency on survival (apoptosis) in IGFBP-3 deficient MEFs” value (IGFBP-3 deficient MEFs) was “equal potency”. The “glucose levels at 90 and 120 min” value (NONcNZO10/LtJ mice; IP GTT on D15) was “significantly lower”, the glucose tolerance (NONcNZO10/LtJ mice; IP GTT on D15 after 6 hour fast, 0.5 mg/g glucose) was “significantly better glucose tolerance” and the “potency in promoting survival and activating STAT-3 and ERK, compared to humanin” value (shortened to “potency … compared to humanin”) (NIT cells) was “even greater potency”.
For “F6AK21A-HNG: humanin analogue, SEQ ID NO:17 MAPRGASCLLLLTGEIDLPVARRA (synthetic humanin (HN) analogue F6AK21A-HNG)”, the “potency … compared to humanin” value (NIT cells) was “even greater potency”.
In the case of “HNG: humanin analogue, SEQ ID NO:2 MAPRGFSCLLLLTGEIDLPVKRRA (synthetic humanin (HN) analogue S14G-HN (HNG))”, the “potency on survival (apoptosis) in IGFBP-3 deficient MEFs” value (IGFBP-3 deficient MEFs) is reported as “equal potency”.
For “Humanin: 24 amino acid peptide, SEQ ID NO:1 MAPRGFSCLLLLTSEIDLPVKRRA”, the “protection from serum-starvation induced apoptosis” value (NIT-1 insulinoma cells) was “potently protected beta cells from serum-starvation induced apoptosis in a dose dependent manner”, the “protection from serum-starvation induced apoptosis” value (NIT-1 insulinoma cells; listed as humanin) was “reduced the level of apoptosis” and the “protection from serum starvation induced apoptosis (caspase 3/7 assay)” value (NIT-1 cells; FCS-free medium, humanin 10 to 1000 nM) was “protects beta cells from cytokine-induced apoptosis and serum starvation induced apoptosis in a dose-dependent manner”. For the same substance, the “protection from TNF-α induced apoptosis” value (NIT-1 cells; TNF-α 5 ng/mL, 48 hours, humanin 10 to 1000 nM, caspase 3/7 assay) was “protected beta cells from TNF-α induced apoptosis in a dose dependent manner”, the ERK activation (ERK1/2) was “activates ERK” and the “time of phosphorylation of ERK (activation) after adding HN” value (ERK1/2) was 15 min. For the same substance, the STAT3 activation (STAT3) was “activates ERK and STAT3”, the “time of phosphorylation of STAT3 (activation) after addition of HN” value (STAT3) was 4 h and the “glucose tolerance (response to glucose challenge)” value (NOD mice [1]) was “improves glucose tolerance”. For the same substance, the “glucose tolerance (response to glucose challenge)” value (NOD mice [1]; listed as humanin) was “non-diabetic response to glucose challenge”, the “tolerability of daily IP injections” value (NOD mice [1]; mouse, in vivo, ip, 0.7 mg/kg/day) was “tolerated well” and the “total number of islets infiltrated by lymphocytes” value (NOD mice [2]) was “significantly decreased”. For the same substance, the “severity of lymphocyte infiltration (insulitis)” value (NOD mice [2]; grades G0-G3) was “significantly decreased; also recorded: decreased insulitis severity”, the onset of diabetes (NOD mice [3]) was “delays onset of diabetes” and the onset of diabetes (NOD mice [3]; listed as humanin) was “significantly delayed the onset of diabetes”. For the same substance, the IGFBP-3 binding (IGFBP-3) was “binds IGFBP-3”.
With TNF-α [reference compound] the “increase of apoptosis compared to serum-deprived cells” value (NIT-1 cells; TNF-α 5 ng/mL, 48 hours) was “approximately 40%”.
“Z-HN: humanin analogue, SEQ ID NO:18 MAKRGLNCLPHQVSEIDLSVQKRI (synthetic humanin (HN) analogue Z-HN)” was tested, and the “potency … compared to humanin” value (NIT cells) was “two-fold greater potency than humanin”.
